Measurements as given in US11766434B2, “Pyrimidinone derivatives as CDC7 inhibitors” (Cancer Research Technology Limited, priority 2016, dated 2023).

Columns and labels:
Cdc7 = Cdc7 (Homo sapiens, UniProt O00311); experiment: Cdc7 cell pharmacodynamics assay Method 3: pS53MCM2 levels in SW48 cells; type: cell-based; parameters: endogenous in cells; host or cells: SW48; conditions: 6 hours treatment, read-out: Biomarker Method 3 (pEC50) (converted)
Text: This protocol describes a method to investigate the inhibition of Cdc7 activity by measuring pS53MCM2 levels in cells, after treatment with compounds.
• SW48 cells • RPMI 1640 (Sigma, R5886) • 10% FCS (Sera Laboratories International Ltd, EU000F Batch: 108005) • 100× L-Glutamine (Invitrogen, 25030-024) • D-Glucose Solution (10%) (Sigma, G8644) • HEPES Buffer Solution (Sigma, 83264) • Sodium Pyruvate (Sigma, S8636) • PBS (Fisger, BP399-4) • Trypsin/EDTA (Invitrogen 25300-054) • 2% BSA in PBS • Cell Extraction Buffer (Invitrogen FNN0011) • Protease inhibitor cocktail (Sigma P-2714) • PMSF 0.3M stock in DMSO (Sigma P7626) • Antibody—rabbit pMCM2 Ser53 (Bethyl #A300-756A) • Antibody—goat MCM2 (Bethyl #A300-122A) • Antibody—goat Anti Rabbit IgG HRP (Perbio Science UK Ltd 31462) • SuperSignal ELISA Pico Chemiluminescent Substrate (Perbio Science UK Ltd 37070) Method • Plate 30,000 SW48 cells per well in standard TC treated 96 well plate in 100 μL complete RPMI 1640 medium. • Allow cells to settle overnight in incubator set at 37° C. and 5% CO2. • Cell treatment: prepare a 384 well plate containing 80 μl PBS/well. The PBS should be at room temperature—to be referred to as intermediate plate. Transfer 2 μL of compound from mother plate to intermediate (daughter plate) 1:40 dilution, then 5 μL intermediate to cell (daughter) plate. • Once all cells are treated place the cells back to the incubator and incubate for 6 hours. • Dilute the capture antibody (total MCM2 #A300-122A) 1 in 250 in the required volume of PBS (5 mL per assay plate, plus 5 mL for dead volume) and add 50 μL to each well of a Hybond plate. Seal the plate and incubate at room temperature for a minimum of 2 hours. • Defrost aliquot of Invitrogen Cell Extraction Buffer (FNN0011) on ice and supplement with appropriate volume of both Sigma protease inhibitor cocktail (P-2714) and PMSF (final cone 1 mM from a 1 M stock in DMSO). • After the 6 hour cell treatment time, tap out the media from the assay plates and place them in the −80° C. freezer for at least 5 minutes. • Remove plates from freezer and add 20 μL of ice cold complete lysis buffer, with the multidrop. Incubate cells for 30 minutes at 4° C. • Add 80 μL per well 2% BSA. • Flick out the remaining liquid from the capture plate and transfer 80 μL from the lysis plate to the same wells in the capture/ELISA plate, using the Biomek. Cover with plate seal and incubate plates overnight at 4° C. • Wash plates with PBS, remove any residual remaining liquid and add 50 μL per well of pMCM2 Ser53 antibody (#A300-756A) diluted 1 in 100 in 2% BSA. Cover plate and incubate at room temperature for 2 hours with gentle shaking. • Wash plates with PBS, remove any residual remaining liquid and Incubate with 50 μL goat anti rabbit antibody (1 in 800 dilution in 2% BSA), for 1 hour at room temperature. • Wash plates with PBS, remove any residual remaining liquid and add 50 μL mixed SuperSignal Pico substrate. • Incubate each plate for 5 minutes at room temperature shielding the plates from direct light (with a cover plate). Read plates with the luminescent detection. Results

Cdc7/ASK = Cdc7/ASK (Homo sapiens, UniProt O00311); experiment: Cdc7 biochemical assay Method 3: off-chip mobility shift assay (MSA) run at Carna Biosciences; parameters: purchased Carna Biosciences; host or cells: baculovirus expression system; conditions: MCM2 peptide 1000 nM, ATP 5 μM, 5 hours, read-out: Biochemical method 3 (pIC50) (converted)
Description: This protocol describes a method for assaying Cdc7/ASK for activity. The assay is an off-chip mobility shift assay (MSA) run at Carna Biosciences.
The test compound was dissolved in and diluted with dimethylsulfoxide (DMSO) to achieve 100-fold higher concentration which was specified by the sponsor. Then the solution was further 25-fold diluted with assay buffer to make the final test compound solution. Reference compounds for assay control were prepared similarly. 2. Kinase Cdc7/ASK: Full-length human Cdc7 [1-574(end) amino acids of accession number NP_003494.1] was co-expressed as N-terminal GST-fusion protein (92 kDa) with Dbf4(ASK) [1-674(end) amino acids of accession number NP_006707.1] using baculovirus expression system. GST-Cdc7 was purified by using glutathione sepharose chromatography. 3. Assay Reagents and Procedures Off-Chip Mobility Shift Assay (MSA) • 1) The […] were prepared with assay buffer (20 mM HEPES, 0.01% Triton X-100, 1 mM DTT, pH 7.5) and mixed and incubated in a well of polypropylene 384 well microplate for 5 hours at room temperature. • 2) […] of Termination Buffer (QuickScout Screening Assist MSA; Carna Biosciences) was added to the well. • 3) The reaction mixture was applied to LabChip system (Perkin Elmer), and the product and substrate peptide peaks were separated and quantitated. • 4) The kinase reaction was evaluated by the product ratio calculated from peak heights of product (P) and substrate (S) peptides (P/(P+S)). 4. Reaction Conditions
5. Data Analysis The readout value of reaction control (complete reaction mixture) was set as a 0% inhibition, and the readout value of background (Enzyme(−)) was set as a 100% inhibition, then the percent inhibition of each test solution was calculated. IC50 value was calculated from concentration vs. % Inhibition curves by fitting to a four parameter logistic curve. Results

Sequence of Cdc7 (O00311 whole entry): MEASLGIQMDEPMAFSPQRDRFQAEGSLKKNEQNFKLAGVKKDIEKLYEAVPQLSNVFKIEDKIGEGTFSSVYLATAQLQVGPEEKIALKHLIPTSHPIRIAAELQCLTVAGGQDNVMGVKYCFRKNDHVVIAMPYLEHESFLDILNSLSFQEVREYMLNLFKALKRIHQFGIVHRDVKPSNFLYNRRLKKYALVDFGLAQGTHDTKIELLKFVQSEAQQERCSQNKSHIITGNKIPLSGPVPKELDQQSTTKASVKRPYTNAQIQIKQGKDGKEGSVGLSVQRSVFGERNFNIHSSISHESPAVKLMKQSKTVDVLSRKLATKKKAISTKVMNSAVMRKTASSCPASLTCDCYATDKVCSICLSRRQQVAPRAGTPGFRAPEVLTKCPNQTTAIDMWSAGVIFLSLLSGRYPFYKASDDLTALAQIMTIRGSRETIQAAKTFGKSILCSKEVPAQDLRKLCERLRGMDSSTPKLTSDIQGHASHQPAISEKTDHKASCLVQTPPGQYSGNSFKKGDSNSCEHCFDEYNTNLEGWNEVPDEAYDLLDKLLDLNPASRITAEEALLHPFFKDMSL
Sequence of Cdc7 (Q9UBU7 whole entry partner): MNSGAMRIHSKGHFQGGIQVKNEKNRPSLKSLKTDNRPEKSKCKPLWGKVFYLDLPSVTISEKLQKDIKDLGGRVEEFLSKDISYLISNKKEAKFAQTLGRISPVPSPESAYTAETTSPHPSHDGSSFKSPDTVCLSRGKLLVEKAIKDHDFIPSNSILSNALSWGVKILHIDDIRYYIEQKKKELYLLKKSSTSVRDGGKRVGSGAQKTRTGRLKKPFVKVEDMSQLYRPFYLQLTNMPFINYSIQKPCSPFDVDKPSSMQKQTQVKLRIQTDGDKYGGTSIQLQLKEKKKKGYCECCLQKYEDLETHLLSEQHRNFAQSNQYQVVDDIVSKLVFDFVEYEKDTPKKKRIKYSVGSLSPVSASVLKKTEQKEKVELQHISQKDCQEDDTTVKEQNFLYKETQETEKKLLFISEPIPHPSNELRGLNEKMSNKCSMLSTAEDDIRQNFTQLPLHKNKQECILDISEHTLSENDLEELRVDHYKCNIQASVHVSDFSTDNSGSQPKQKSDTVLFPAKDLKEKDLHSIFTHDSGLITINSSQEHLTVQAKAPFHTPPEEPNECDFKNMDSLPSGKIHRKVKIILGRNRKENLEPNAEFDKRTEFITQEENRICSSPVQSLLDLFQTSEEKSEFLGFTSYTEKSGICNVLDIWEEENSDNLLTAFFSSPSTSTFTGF
Sequence of Cdc7/ASK (O00311 whole entry): as the sequence (O00311 whole entry) above
Sequence of Cdc7/ASK (Q9UBU7 whole entry partner): as the sequence (Q9UBU7 whole entry partner) above

Structure (SMILES) | EC50 (Cdc7) | IC50 (Cdc7/ASK)
Cc1ncsc1-c1nc(C2CCOCC2)c(Cl)c(=O)[nH]1 [Compound 6, 5-chloro-2-(4-methylthiazol-5-yl)-4-tetrahydropyran-4-yl-1H-pyrimidin-6-one] | 2090 nM | –
C[C@@H]1CNCCN1c1nc(-c2cn[nH]c2Cl)[nH]c(=O)c1Cl [Compound 43, 5-chloro-2-(5-chloro-1H-pyrazol-4-yl)-4-[(2R)-2-methylpiperazin-1-yl]-1H-pyrimidin-6-one] | 347 nM | 3.89 nM
Cc1ncsc1-c1nc(N2CCN[C@@H](C(F)(F)F)C2)c(Cl)c(=O)[nH]1 [Compound 28, 5-chloro-2-(4-methylthiazol-5-yl)-4-[(3R)-3-(trifluoromethyl)piperazin-1-yl]-1H-pyrimidin-6-one] | 1100 nM | –
O=c1[nH]c(-c2scnc2Cl)nc(C2CCOCC2)c1Cl [Compound 4, 5-chloro-2-(4-chlorothiazol-5-yl)-4-tetrahydropyran-4-yl-1H-pyrimidin-6-one] | 1480 nM | –
O=c1[nH]c(-c2scnc2C(F)(F)F)nc(C2CCOCC2)c1Cl [Compound 14, 5-chloro-4-tetrahydropyran-4-yl-2-[4-(trifluoromethyl)thiazol-5-yl]-1H-pyrimidin-6-one] | 2450 nM | –

Now from value to compound:

EC50 (Cdc7) | IC50 (Cdc7/ASK) | Structure (SMILES)
316 nM | 3.98 nM | C[C@@H]1COCCN1c1nc(-c2cn[nH]c2C(F)(F)F)[nH]c(=O)c1Cl [Compound 41, 5-chloro-4-[(3R)-3-methylmorpholin-4-yl]-2-[5-(trifluoromethyl)-1H-pyrazol-4-yl]-1H-pyrimidin-6-one]
724 nM | 6.17 nM | C[C@@H]1CNCCN1c1nc(-c2cn[nH]c2C(F)(F)F)[nH]c(=O)c1Cl [Compound 44, 5-chloro-4-[(2R)-2-methylpiperazin-1-yl]-2-[5-(trifluoromethyl)-1H-pyrazol-4-yl]-1H-pyrimidin-6-one]
